Like-named read-outs stand apart in the source and are kept apart here.
Assays:
NCI-H460 cells [1] = experiment: Antiproliferation assay - oxygen dependence; format: cell-based, human; details: Homo sapiens
Text: . […] The calculated IC50 values (μM) are tabulated in Table Y1 (H460 cells) or Table Y2 (HT29 cells) below.

[2] = format: physicochemical; details: glassy carbon, Ag/AgCl reference; for Reduction Potentials, 100 mV/sec: scan rate 100 mV/sec; for Reduction Potentials, 10,000 mV/sec: scan rate 10,000 mV/sec
HT29 cells [3] = experiment: Cell cycle distribution (flow cytometry); format: cell-based, human
Protocol: Cells ([…], PC3 and HT29) were seeded at a density of 1.0×10^6 cells/3 ml medium per 60 mm dish. After 24 h attachment, cells were exposed to Compound 25 at the indicated concentrations for 2 h under either normoxia (air) or anoxia (nitrogen). Cells were washed twice, and incubated for an additional 22 h in fresh medium. Cells were trypsinized, centrifuged, and fixed in 75% ethanol at least for 24 h at −20° C. Cell cycle distribution was determined using Guava Cell Cycle reagent (Guava, Hayward, Calif.) by flow cytometry (Guava, Hayward, Calif.).

in vivo = details: for half-life: t ½, mice
[4] = Plasma stability (Table 2B)
[5] = system: H460 lung carcinoma spheroids; experiment: Spheroid model, clonogenic survival; details: Homo sapiens, NCI-H460, 2 h, read-out: IC90 H460 Spheroid 10% O2
AA8 cells (wild type) = experiment: Antiproliferation assay - DNA mutant repair cells; details: Cricetulus griseus, CHO-AA8, 2 h
EM9 cells (XRCC1) = experiment: Antiproliferation assay - DNA mutant repair cells; details: Cricetulus griseus, 2 h
UV41 cells (XPF) = experiment: Antiproliferation assay - DNA mutant repair cells; details: Cricetulus griseus, 2 h
UV135 cells (XPG) = experiment: Antiproliferation assay - DNA mutant repair cells; details: Cricetulus griseus, 2 h
IRS1SF cells (XRCC3) = experiment: Antiproliferation assay - DNA mutant repair cells; details: Cricetulus griseus, 2 h
[6] = system: H460 cells exposed as monolayers; experiment: Clonogenic survival of monolayer cells (Example 35); details: Homo sapiens, NCI-H460, 2 h
NCI-H460 cells [7] = experiment: Antiproliferation assay (Alamar Blue), anoxia vs air; details: Homo sapiens, NCI-H460, 2 h
HT29 cells [8] = experiment: as above; details: Homo sapiens, HT-29, 2 h
MES-SA cells = experiment: as above; details: Homo sapiens, 2 h
MES-SA/Dx5 cells = experiment: as above; details: Homo sapiens, MES-SA/Dx5, 2 h
H460 cell line = experiment: Anti-proliferation assay, hypoxia vs normoxia (Table 1A); details: for IC50: Homo sapiens; for HCR P: ratio of IC50 in normoxia and hypoxia
HT29 = experiment: Anti-proliferation assay, hypoxia vs normoxia (Table 1B); details: for IC50: Homo sapiens
DX-5 = experiment: as above
HCT116 = experiment: as above; details: for IC50: Homo sapiens
[9] = NCI-H460, read-out: IC50 in H460 cells, 0.1% O2
[10] = NCI-H460, read-out: IC50 in H460 cells, 0.6% O2
[11] = NCI-H460, read-out: IC50 in H460 cells, 1% O2
[12] = NCI-H460, read-out: IC50 in H460 cells, 10% O2
[13] = NCI-H460, read-out: IC50 in H460 cells, Air
[14] = NCI-H460, read-out: IC50 in H460 cells, N2
[15] = CD-1, Balb/c for Compound 1, mouse, ip
[16] = CD-1, Balb/c for Compound 1, mouse, iv
[17] = CD-1, Balb/c for Compound 1, mouse, iv, intravenous administration in mice
[18] = mouse, ip, intraperitoneal administration in mice
[19] = read-out: IC90 H460 Monolayer Air
[20] = read-out: IC90 H460 Monolayer N2
[21] = read-out: IC50 H460 Air, air, 2 h exposure
[22] = read-out: IC50 H460 Anoxia, anoxia, 2 h exposure
[23] = read-out: IC50 MES-SA/Dx5 Anoxia
[24] = NCI-H460, read-out: Hypoxia P (proliferation IC50)
[25] = NCI-H460, read-out: Normoxia P (proliferation IC50)
[26] = HT-29, read-out: HT29 P H (proliferation IC50, hypoxia)
[27] = HT-29, read-out: HT29 P N (proliferation IC50, normoxic)
[28] = read-out: DX-5 P H (proliferation IC50, hypoxia)
[29] = read-out: DX-5 P N (proliferation IC50, normoxic)
[30] = HCT-116, read-out: HCT116 P H (proliferation IC50, hypoxia)
[31] = HCT-116, read-out: HCT116 P N (proliferation IC50, normoxic)

Cn1c(COP(=O)(NCCBr)NCCBr)cnc1[N+](=O)[O-] [Compound 25]
IC50 (NCI-H460 cells [1]; [9]): 1 µM | IC50 (NCI-H460 cells [1]; NCI-H460, read-out: IC50 in H460 cells, 0.3% O2): 3 µM | IC50 (NCI-H460 cells [1]; [10]): 5 µM | IC50 (NCI-H460 cells [1]; [11]): 10 µM | IC50 (NCI-H460 cells [1]; [12]): 25 µM | IC50 (NCI-H460 cells [1]; [13]): 55 µM | IC50 (NCI-H460 cells [1]; [14]): 0.1 µM | Reduction Potentials, 100 mV/sec [2]: −594 mV | Reduction Potentials, 10,000 mV/sec [2]: −626 mV | Cell cycle G0/G1 (HT29 cells [3]; 0.005 μM, Air): 52 | Cell cycle G2/M (HT29 cells [3]; 0.005 μM, Air): 35 | Cell cycle S (HT29 cells [3]; 0.005 μM, Air): 12 | Cell cycle G0/G1 (HT29 cells [3]; 0.005 μM, Nitrogen): 46 | Cell cycle G2/M (HT29 cells [3]; 0.005 μM, Nitrogen): 40 | Cell cycle S (HT29 cells [3]; 0.005 μM, Nitrogen): 14 | Cell cycle G0/G1 (HT29 cells [3]; 0.05 μM, Air): 50 | Cell cycle G2/M (HT29 cells [3]; 0.05 μM, Air): 35 | Cell cycle S (HT29 cells [3]; 0.05 μM, Air): 15 | Cell cycle G0/G1 (HT29 cells [3]; 0.05 μM, Nitrogen): 37 | Cell cycle G2/M (HT29 cells [3]; 0.05 μM, Nitrogen): 52 | Cell cycle S (HT29 cells [3]; 0.05 μM, Nitrogen): 11 | Cell cycle G0/G1 (HT29 cells [3]; 0.5 μM, Air): 48 | Cell cycle G2/M (HT29 cells [3]; 0.5 μM, Air): 37 | Cell cycle S (HT29 cells [3]; 0.5 μM, Air): 14 | Cell cycle G0/G1 (HT29 cells [3]; 0.5 μM, Nitrogen): 8 | Cell cycle G2/M (HT29 cells [3]; 0.5 μM, Nitrogen): 84 | Cell cycle S (HT29 cells [3]; 0.5 μM, Nitrogen): 8 | Cell cycle G0/G1 (HT29 cells [3]; 5 μM, Air): 47 | Cell cycle G2/M (HT29 cells [3]; 5 μM, Air): 39 | Cell cycle S (HT29 cells [3]; 5 μM, Air): 13 | Cell cycle G0/G1 (HT29 cells [3]; 5 μM, Nitrogen): 14 | Cell cycle G2/M (HT29 cells [3]; 5 μM, Nitrogen): 36 | Cell cycle S (HT29 cells [3]; 5 μM, Nitrogen): 50 | Cmax (in vivo; [15]): 22900 ng/mL | Cmax (in vivo; [16]): 27500 ng/mL | half-life (in vivo; [17]): 6.6 min | half-life (in vivo; mouse, ip, intraperitoneal administration in mice (min)): 11 min | half-life (in vivo; [18]): 10.8 min | half-life (in vivo; mouse, iv, intravenous administration in mice (min)): 6.7 min | Plasma stability (at 20 min) ([4]; at 20 min): 102% | IC90 [5]: 15 µM | IC50 (AA8 cells (wild type); read-out: IC50 AA8 Air): > 100 µM | IC50 (AA8 cells (wild type); read-out: IC50 AA8 Anoxia): 8 µM | IC50 (EM9 cells (XRCC1); read-out: IC50 EM9 Air): > 100 µM | IC50 (EM9 cells (XRCC1); read-out: IC50 EM9 Anoxia): 7 µM | IC50 (UV41 cells (XPF); read-out: IC50 UV41 Air): 95 µM | IC50 (UV41 cells (XPF); read-out: IC50 UV41 Anoxia): 0.2 µM | IC50 (UV135 cells (XPG); read-out: IC50 UV135 Air): > 100 µM | IC50 (UV135 cells (XPG); read-out: IC50 UV135 Anoxia): 6 µM | IC50 (IRS1SF cells (XRCC3); read-out: IC50 IRS1SF Air): > 100 µM | IC50 (IRS1SF cells (XRCC3); read-out: IC50 IRS1SF Anoxia): 2 µM | IC90 ([6]; read-out: IC90 H460 Monolayer 0.6% O2): 0.6 µM | IC90 [6, 19]: 20 µM | IC90 [6, 20]: 0.1 µM | IC50 (NCI-H460 cells [7]; [21]): 86 µM | IC50 (NCI-H460 cells [7]; [22]): 0.15 µM | IC50 (HT29 cells [8]; read-out: IC50 HT29 Air): > 100 µM | IC50 (HT29 cells [8]; read-out: IC50 HT29 Anoxia): 16 µM | IC50 (MES-SA cells; read-out: IC50 MES-SA Air): > 100 µM | IC50 (MES-SA cells; read-out: IC50 MES-SA Anoxia): 0.9 µM | IC50 (MES-SA/Dx5 cells; read-out: IC50 MES-SA/Dx5 Air): > 100 µM | IC50 (MES-SA/Dx5 cells; [23]): 0.3 µM | IC50 (H460 cell line; [24]): 0.05 µM | IC50 (H460 cell line; NCI-H460, read-out: IC50 in cells under hypoxia): 0.05 µM | IC50 (H460 cell line; [25]): 50 µM | fold more toxic in hypoxic cells than in normoxic cells (H460 cell line; anti-proliferation cytotoxicity assay): 1000 fold | HCR P (H460 cell line): 1000 | HT29 HCR P (HT29): >6 | IC50 (HT29; [26]): 16 µM | IC50 (HT29; [27]): > 100 µM | DX-5 HCR (DX-5): >100 | IC50 (DX-5; [28]): 1 µM | IC50 (DX-5; [29]): > 100 µM | HCT116 HCR (HCT116): >100 | IC50 (HCT116; [30]): 0.9 µM | IC50 (HCT116; [31]): > 100 µM

Cn1c(COP(=O)(NCCCl)NCCCl)cnc1[N+](=O)[O-] [Compound 36]
IC50 (NCI-H460 cells [1]; [9]): 30 µM | IC50 (NCI-H460 cells [1]; [10]): 60 µM | IC50 (NCI-H460 cells [1]; [11]): 60 µM | IC50 (NCI-H460 cells [1]; [12]): > 100 µM | IC50 (NCI-H460 cells [1]; [13]): > 100 µM | IC50 (NCI-H460 cells [1]; [14]): 1 µM | Reduction Potentials, 100 mV/sec [2]: −609 mV | Reduction Potentials, 10,000 mV/sec [2]: −634 mV | clearance (in vivo; CD-1 (Compounds 5, 23, 36), Balb/c (Compound 1), mouse, iv): 77.4 mL/min/kg | Cmax (in vivo; [15]): 44000 ng/mL | AUC (in vivo; [16]): 10800 ng·h/mL | Cmax (in vivo; [16]): 27700 ng/mL | Vd (in vivo; [16]): 1.27 L/kg | half-life (in vivo; [17]): 14.4 min | AUC (in vivo; CD-1, mouse, ip): 26100 ng·h/mL | half-life (in vivo; [18]): 10.8 min | Plasma stability (% at 30 min) ([4]; 30 min): 60% | IC90 [5]: > 100 µM | IC50 (AA8 cells (wild type); read-out: IC50 AA8 Air): > 100 µM | IC50 (AA8 cells (wild type); read-out: IC50 AA8 Anoxia): 2 µM | IC50 (EM9 cells (XRCC1); read-out: IC50 EM9 Air): > 100 µM | IC50 (EM9 cells (XRCC1); read-out: IC50 EM9 Anoxia): 4 µM | IC50 (UV41 cells (XPF); read-out: IC50 UV41 Air): 20 µM | IC50 (UV41 cells (XPF); read-out: IC50 UV41 Anoxia): 0.03 µM | IC50 (UV135 cells (XPG); read-out: IC50 UV135 Air): > 100 µM | IC50 (UV135 cells (XPG); read-out: IC50 UV135 Anoxia): 2 µM | IC50 (IRS1SF cells (XRCC3); read-out: IC50 IRS1SF Air): 59 µM | IC50 (IRS1SF cells (XRCC3); read-out: IC50 IRS1SF Anoxia): 0.3 µM | IC90 [6, 19]: 100 µM | IC90 [6, 20]: 1 µM | IC50 (NCI-H460 cells [7]; [21]): > 100 µM | IC50 (NCI-H460 cells [7]; [22]): 0.88 µM | IC50 (HT29 cells [8]; read-out: IC50 HT29 Air): > 100 µM | IC50 (HT29 cells [8]; read-out: IC50 HT29 Anoxia): 55 µM | IC50 (MES-SA cells; read-out: IC50 MES-SA Air): > 100 µM | IC50 (MES-SA cells; read-out: IC50 MES-SA Anoxia): 5 µM | IC50 (MES-SA/Dx5 cells; read-out: IC50 MES-SA/Dx5 Air): > 100 µM | IC50 (MES-SA/Dx5 cells; [23]): 7.5 µM | IC50 (H460 cell line; [24]): 0.88 µM | IC50 (H460 cell line; [25]): > 100 µM | HCR P (H460 cell line): >110 | HT29 HCR P (HT29): >2 | IC50 (HT29; [26]): 55 µM | IC50 (HT29; HT-29, read-out: HT29 P H, value in parentheses): 35 µM | IC50 (HT29; [27]): > 100 µM | DX-5 HCR (DX-5): >13 | IC50 (DX-5; [28]): 7.5 µM | IC50 (DX-5; [29]): > 100 µM | HCT116 HCR (HCT116): >20 | IC50 (HCT116; [30]): 5 µM | IC50 (HCT116; [31]): > 100 µM
